One assay concerns the target T1, serotonin 1A receptor (Rattus norvegicus, UniProt P19327).
T1 construct: To the receptor fraction of the hippocampus were added a test compound and 0.5 nM of [^3H]; 8-hydroxy-dipropylaminotetralin; from tissue; host or cells: SD rat hippocampus, membrane (receptor) fraction
T1 sequence (P19327 1-422): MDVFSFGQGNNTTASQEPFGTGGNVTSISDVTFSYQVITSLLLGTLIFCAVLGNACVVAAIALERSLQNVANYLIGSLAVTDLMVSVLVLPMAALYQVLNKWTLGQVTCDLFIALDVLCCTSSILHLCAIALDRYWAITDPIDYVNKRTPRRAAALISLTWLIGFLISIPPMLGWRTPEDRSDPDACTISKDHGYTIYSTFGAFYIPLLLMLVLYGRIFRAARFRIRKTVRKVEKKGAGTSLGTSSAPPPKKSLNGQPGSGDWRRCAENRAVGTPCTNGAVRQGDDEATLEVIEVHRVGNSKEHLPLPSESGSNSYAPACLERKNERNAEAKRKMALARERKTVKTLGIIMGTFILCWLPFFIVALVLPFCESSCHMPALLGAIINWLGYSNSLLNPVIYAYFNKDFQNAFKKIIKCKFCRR
Put plainly: Binding test on [3H] 8-hydroxy-dipropylaminotetralin (serotonin 1A receptor). The note with it: [3H] 8-OH-DPAT 0.5 nM, receptor fraction of rat hippocampus; read-out: 5HT1a.

The next assay deals with serotonin 2 receptor (Rattus norvegicus, UniProt P14842). Nature of the assay: Binding test on [3H] ketanserin (serotonin 2 receptor). The note with it: [3H] ketanserin 0.3 nM, receptor fraction of rat cerebral cortex; read-out: 5HT2.
Sequence of serotonin 2 receptor (P14842 whole entry): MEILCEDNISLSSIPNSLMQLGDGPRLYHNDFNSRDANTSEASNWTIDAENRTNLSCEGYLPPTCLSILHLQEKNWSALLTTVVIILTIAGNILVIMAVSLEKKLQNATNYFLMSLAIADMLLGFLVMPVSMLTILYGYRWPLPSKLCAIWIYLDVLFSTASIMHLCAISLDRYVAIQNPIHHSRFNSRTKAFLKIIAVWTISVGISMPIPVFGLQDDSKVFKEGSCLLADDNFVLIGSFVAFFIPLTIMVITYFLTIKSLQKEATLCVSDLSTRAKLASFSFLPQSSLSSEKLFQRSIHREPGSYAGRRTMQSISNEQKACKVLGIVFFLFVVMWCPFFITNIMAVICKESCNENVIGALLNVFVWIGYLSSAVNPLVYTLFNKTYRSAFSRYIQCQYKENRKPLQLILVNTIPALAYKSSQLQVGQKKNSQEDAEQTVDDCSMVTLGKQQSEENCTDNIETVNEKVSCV

Description for serotonin 1A receptor: 3) [^3H] 8-Hydroxy-dipropylaminotetralin (8-OH-DPAT).
Use was made of SD rats aged 6 to 8 weeks.
The rats were sacrificed by dcapitation to extirpate the cerebra.
Each mixture was homogenized by using a Teflon glass homogenizer and centrifuged at 1,000×g for 10 min. The supernatant thus obtained was further centrifuged at 20,000×g for 20 min. The obtained precipitate was re-suspended in 50 times (based on the intial wet weight; in the case of the hippocampus) or 10 times (in the case of the cortex) as much a 50 mM Tris hydrochloride (pH 7.4) and incubated at room temperature for 30 min. After centrifuging at 20,000×g for 20 min, the obtained precipitate was further suspended and centrifuged twice each in the same manner. The precipitate thus obtained was suspended in 100 times (based on the initial wet weight; in the case of the hippocampus) or 20 times (in the case of the cortex) as much a 50 mM Tris hydrochloride solution (pH 7.4) to thereby give a receptor fraction. This receptor fraction was stored at −80° C. until using.
(Binding Test on [^3H] 8-hydroxy-dipropylaminotetralin)
To the receptor fraction of the hippocampus were added a test compound and 0.5 nM of [^3H] 8-hydroxy-dipropylaminotetralin and the resultant mixture was incubated at room temperature for 30 min. Next, it was filtered through a glass filter with the use of a cell harvester. After washing the glass filter with 50 mM Tris hydrochloride (pH 7.4), the radioactivity of the receptor was measured with a liquid scintillation counter. The binding detected in the presence of 10 μM of serotonin binoxalate was referred to as the nonspecific binding.
IC50 was calculated by the probit method, while Ki was determined in accordance with the following formula:
wherein c represents the concentration of the radioisotope-labeled compound, and Kd represents the dissociation constant of the radioisotope-labeled compound with respect to the receptor determined by Scatchard's analysis.

As to `CC(C)(C)NC(=O)Cc1ccc2c(c1)N(C1CCN(CCc3ccc(F)cc3)CC1)CC2` [Example 153, 1-[1-(4-fluorophenethyl)piperidin-4-yl]-6-(t-butylcarbamoylmethyl)indoline], the Ki at serotonin 1A receptor was found to be 15.5 nM; on serotonin 2 receptor, 4.24 nM.
Turning to `O=C(Cc1ccc2c(c1)N(C1CCN(CCc3ccc(F)cc3)CC1)CC2)N1CCCC1` [Example 155, 1-[1-(4-fluorophenethyl)piperidin-4-yl]-6-(tetramethylenecarbamoylmethyl)indoline], the Ki amounted to 14.8 nM on serotonin 1A receptor and 1.33 nM on serotonin 2 receptor.
Turning to `CCC(=O)NCc1ccc2c(c1)N(C1CCN(CCc3ccc(F)cc3)CC1)CC2` [Example 156, 1-[1-(4-fluorophenethyl)piperidin-4-yl]-6-propionylaminomethylindoline], the Ki at serotonin 1A receptor was 7.8 nM; on serotonin 2 receptor it was 2.6 nM.
In the same order, the values of `CCCC(=O)NCc1ccc2c(c1)N(C1CCN(CCc3ccc(F)cc3)CC1)CC2` [Example 157, 1-[1-(4-fluorophenethyl)piperidin-4-yl]-6-(n-butyryl)aminomethylindoline] are 4.11 nM and 0.18 nM.
In the same order, the values of `CC(C)C(=O)NCc1ccc2c(c1)N(C1CCN(CCc3ccc(F)cc3)CC1)CC2` [Example 158, 1-[1-(4-fluorophenethyl)piperidin-4-yl]-6-isobutyrylaminomethylindoline] are 8.18 nM and 0.16 nM.
On to `O=C(NCc1ccc2c(c1)N(C1CCN(CCc3ccc(F)cc3)CC1)CC2)C1CC1` [Example 159, 1-[1-(4-fluorophenethyl)piperidin-4-yl]-6-cyclopropanecarboxamindomethylindoline], for which the Ki at serotonin 1A receptor turned out to be 5.58 nM; on serotonin 2 receptor it was 0.76 nM.
The corresponding values for `CS(=O)(=O)NCc1ccc2c(c1)N(C1CCN(CCc3ccc(F)cc3)CC1)CC2` [Example 160, 1-[1-(4-fluorophenethyl)piperidin-4-yl]-6-methylsulfonylaminomethylindoline] are 3.86 nM and 8 nM.
On to `NC(=O)NCc1ccc2c(c1)N(C1CCN(CCc3ccc(F)cc3)CC1)CC2` [Example 161, 1-[1-(4-fluorophenethyl)piperidin-4-yl]-6-ureidomethylindoline], for which the Ki at serotonin 1A receptor was 3.23 nM; at serotonin 2 receptor, 0.43 nM.
Take `CC(=O)N(C)Cc1ccc2c(c1)N(C1CCN(CCc3ccc(F)cc3)CC1)CC2` [Example 163, 1-[1-(4-fluorophenethyl)piperidin-4-yl]-6-N-methylacetamidomethylindoline]: the Ki came out at 2.41 nM on serotonin 1A receptor and 7.75 nM on serotonin 2 receptor.
The corresponding values for `CC(=O)NC(C)c1ccc2c(c1)N(C1CCN(CCc3ccc(F)cc3)CC1)CC2` (stereo not shown) [Example 165, 1-[1-(4-fluorophenethyl)piperidin-4-yl]-6-(1-acetamidoethyl)indoline] are 5.5 nM and 1.22 nM.
In the same order, the values of `Fc1ccc(CCN2CCC(N3CCc4ccc(CC5CCNCC5)cc43)CC2)cc1` [Example 167, 1-[1-(4-fluorophenethyl)piperidin-4-yl]-6-[(piperidin-4-yl)methyl]indoline] are 6.49 nM and 18.4 nM.
As for `CCN1CCC(Cc2ccc3c(c2)N(C2CCN(CCc4ccc(F)cc4)CC2)CC3)CC1` [Example 169, 1-[1-(4-fluorophenethyl)piperidin-4-yl]-6-[(1-ethylpiperidin-4-yl)methyl]indoline], the Ki on serotonin 1A receptor was found to be 16.4 nM; on serotonin 2 receptor, 13.8 nM.
In the same order, the values of `CN1CCC(Cc2ccc3c(c2)N(C2CCN(CCc4ccc(F)cc4)CC2)CC3)CC1` [Example 170, 1-[1-(4-fluorophenethyl)piperidin-4-yl]-6-[(1-methylpiperidin-4-yl)methyl]indoline] are 47.5 nM and 16.3 nM.
Consider `Fc1ccc(CCN2CCC(N3CCc4ccc(-c5ccccn5)cc43)CC2)cc1` [Example 171, 1-[1-(4-fluorophenethyl)piperidin-4-yl]-6-(2-pyridyl)indoline], for which the Ki at serotonin 1A receptor came to 0.39 nM; on serotonin 2 receptor it was 178 nM.
Take `Fc1ccc(CCN2CCC(N3CCc4ccc(-c5nccs5)cc43)CC2)cc1` [Example 172, 1-[1-(4-fluorophenethyl)piperidin-4-yl]-6-(2-thiazolyl)indoline]: the Ki amounted to 0.12 nM at serotonin 1A receptor and 52.4 nM at serotonin 2 receptor.
As to `Cn1cccc1-c1ccc2c(c1)N(C1CCN(CCc3ccc(F)cc3)CC1)CC2` [Example 173, 1-[1-(4-fluorophenethyl)piperidin-4-yl]-6-(1-methylpyrrol-2-yl)indoline], the Ki on serotonin 1A receptor was 0.06 nM; on serotonin 2 receptor, 70.1 nM.
In the same order, the values of `OC(c1ccc2c(c1)N(C1CCN(CCc3ccc(F)cc3)CC1)CC2)c1ccccn1` (stereo not shown) [Example 174, 1-[1-(4-fluorophenethyl)piperidin-4-yl]-6-[1-hydroxy-1-(2-pyridyl)methyl]indoline] are 0.24 nM and 1.85 nM.
In the same order, the values of `Fc1ccc(CCN2CCC(N3CCc4ccc(Cc5ccccn5)cc43)CC2)cc1` [Example 175, 1-[1-(4-fluorophenethyl)piperidin-4-yl]-6-[1-(2-pyridyl)methyl]indoline] are 1.49 nM and 0.35 nM.
In the same order, the values of `OC(c1cccnc1)c1ccc2c(c1)N(C1CCN(CCc3ccc(F)cc3)CC1)CC2` (stereo not shown) [Example 176, 1-[1-(4-fluorophenethyl)piperidin-4-yl]-6-[1-hydroxy-1-(3-pyridyl)methyl]indoline] are 1.67 nM and 0.05 nM.
Take `Fc1ccc(CCN2CCC(N3CCc4ccc(Cc5cccnc5)cc43)CC2)cc1` [Example 177, 1-[1-(4-fluorophenethyl)piperidin-4-yl]-6-[1-(3-pyridyl)methyl]indoline]: the Ki on serotonin 1A receptor was determined as 0.25 nM; on serotonin 2 receptor it was 0.92 nM.
As for `OC(c1ccncc1)c1ccc2c(c1)N(C1CCN(CCc3ccc(F)cc3)CC1)CC2` (stereo not shown) [Example 178], the Ki at serotonin 1A receptor stood at 10.2 nM; on serotonin 2 receptor, 2.53 nM.
The corresponding values for `Fc1ccc(CCN2CCC(N3CCc4ccc(Cc5ccncc5)cc43)CC2)cc1` [Example 179, 1-[1-(4-fluorophenethyl)piperidin-4-yl]-6-(4-pyridylmethyl)indoline] are 0.17 nM and 0.41 nM.
The corresponding values for `CC(O)(c1ccc2c(c1)N(C1CCN(CCc3ccc(F)cc3)CC1)CC2)c1ccccn1` (stereo not shown) [Example 181, 1-[1-(4-fluorophenethyl)piperidin-4-yl]-6-[1-hydroxy-1-(2-pyridyl)ethyl]indoline] are 1030 nM and 9.62 nM.
`O=C(c1cccnc1)c1ccc2c(c1)N(C1CCN(CCc3ccc(F)cc3)CC1)CC2` [Example 183, 1-[1-(4-fluorophenethyl)piperidin-4-yl]-6-(3-pyridylcarbonyl)indoline]: the Ki is 1.18 nM on serotonin 1A receptor and 3.86 nM at serotonin 2 receptor.
The corresponding values for `COc1ncccc1Cc1ccc2c(c1)N(C1CCN(CCc3ccc(F)cc3)CC1)CC2` [Example 185, 1-[1-(4-fluorophenethyl)piperidin-4-yl]-6-[1-(2-methoxypyridin-3-yl)methyl]indoline] are 14.6 nM and 4.73 nM.
The corresponding values for `O=c1ccc(C(O)c2ccc3c(c2)N(C2CCN(CCc4ccc(F)cc4)CC2)CC3)c[nH]1` (stereo not shown) [Example 190, 1-[1-(4-fluorophenethyl)piperidin-4-yl]-6-[1-hydroxy-1-(2-pyridon-5-yl)methyl]indoline] are 0.49 nM and 0.33 nM.

The values are drawn from patent US6579881B2 (Eisai Co., Ltd., priority 1997, dated 2003).
